Data set [1] deals with Human Hematopoietic Stem Cells. As to the kind of experiment: CD-34+ stemness marker expression (immunostaining, ImageJ quantification). It counts as cell-based. Conditions: peptides grafted on a PET surface; 48 hours.
The subject of data set [2] is hMSCs. In words: STRO-1 stemness marker expression in hMSCs (immunostaining, ImageJ quantification). In kind it is cell-based, Human. The procedure, abridged:
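hMSCs exposed to GFR-binding peptides in solution or grafted on surfaces; cells fixed in 4% paraformaldehyde, permeabilized, stained with Stro-1 antibody (1 h, 37° C) plus Alexa Fluor secondary and DAPI. Stro-1 positive contact number and area quantified by thresholded image analysis, at least 30 cells per condition.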

The next data set relates to Hair Follicle Stem Cells. In words: Activation of hair follicle stem cells on modified hydrogels (Sox2, BMP-6 release). In kind it is cell-based, Mouse. The following applies: hydrogel 73 kPa covalently modified.
The test system of data set [3] is hMSCs. In words: Chondrocyte differentiation of hMSCs on modified hydrogels (Sox9, Aggrecan). In kind it is cell-based, Human. Conditions: 96 hours, hydrogel 14 kPa covalently modified; for Aggrecan gene expression: semi-quantitative RT-PCR. How it is done: (§1) Total RNA was extracted by using the RNeasy total RNA kit (Qiagen®) according to the manufacturer's instructions. Purified total RNA was used as a template in order to make cDNA by a reverse transcription reaction (Gibco Brl®) with random primers (Invitrogen®). The cDNA was then used as a template for a real-time PCR amplification in the presence of SYBR green reagents (Bio-Rad®) by using a thermocycler (iCycler, Biorad®). Data were analyzed with the iCycler IQ™® software and compared by the ΔΔCt method. Briefly, the mean Ct value of the target gene was normalized to its averaged Ct values of the housekeeping gene (HPRT) to give a ΔCt value, which was then normalized to a control sample to obtain a ΔΔCt value.
Total RNA was extracted by using the RNeasy Mini Kit (Qiagen) and […] RNA was used for cDNA synthesis with AMV kit (Invitrogen®) according to the manufacturer' instructions. Semi-quantitative reverse transcriptase-polymerase chain reaction (RT-PCR) was performed with Taq DNA Polymerase (Invitrogen®) in a thermocycler (Bio-Rad®). The cDNA input was normalized to […] (HPRT). The PCR products were analyzed on 2% agarose gels. For the Aggrecan gene, the PCR bands were densitometrically quantified by using the BioCapt software (Vilber). Values were normalized to HPRT, and results were reported as relative gene expression.
For that a semi-quantitative RT-PCR was performed as described in the Methods section for the Aggrecan gene and a Quantitative Real Time PCR for Sox9.

Data set [4] has as its system Human Mesenchymal Stem Cells (hMSCs). In words: Osteogenic differentiation of human mesenchymal stem cells (Runx2, Osterix immunostaining, ALP activity). It counts as cell-based. Conditions: 1 week, type-I collagen sponge coupled with peptide.
The nature of data set [5]: Stability of non-covalent peptide coating on apatite ceramics / type-I collagen (fluorescent peptides). In kind it is physicochemical. Conditions: non-covalent coating on apatite ceramics (SEQ ID NO: 23) or type-I collagen sponge (SEQ ID NO: 22); 3, 7 or 10 days. How it is done:
Non-covalent modifications of the materials were performed in Air Atmosphere at room temperature. The non-covalent coating strategy consisted in using a mixture of inducing peptide (SEQ ID NO: 23; concentration of 1×10^−3M) with an apatite ceramics implant or a mixture of inducing peptide (SEQ ID NO: 22; concentration of 1×10^−3M) with a type-I collagen sponge. The non-covalently coated conventional materials were characterized by using fluorescent peptides (Here SEQ ID NO: 22 and 23 covalently bound to fluorescein isothiocyanate (FITC), FIG. 6). The results shown here in FIG. 6 were obtained from experiments performed with apatite ceramics and a type-I collagen sponge. […] Indeed, after 3, 7 or 10 days, the osteogenic peptides were still coupled to the ceramics or the type-I collagen (FIGS. 7a and b).

In the next data set the test system is Neurons. In words: Neuron growth on modified titanium (dendrite growth, GAP43 Q-PCR). In kind it is cell-based. The following applies: covalently modified titanium. How it is done: as §1
Neurons were cultured on native titanium (control) and on titanium covalently modified with neurogenic peptides (SEQ ID NO: 49). […] To further confirm this the expression of the Growth Associated Protein 43 (GAP43) gene was verified for neuron cells cultured on materials covalently modified with neurogenic peptides (SEQ ID NO: 49).

Data set [6] relates to mouse mesenchymal pre-osteoblastic cells (MC3T3-E1). As to the kind of experiment: Osteogenic differentiation of osteoblast progenitors (extracellular matrix, Osteopontin, Runx2 Q-PCR). It counts as cell-based. Conditions: 48 hours. The method, then:
The surface profiler system is a non-contact optical profiler that measures a wide range of surface heights. The vertical scanning interferometry mode allows for the measurement of rough surfaces and steps of up to several micrometers. This mode was used in order to measure the thickness of the extracellular matrix produced by the cells. First, after 24 h of culture, the cells were fixed with paraformaldehyde in PBS (4%) for 30 minutes at 4° C. and the samples were dehydrated in increasing concentrations of ethanol (30, 70, 80, 90, 95 and 100%) and critical-point dried. To evaluate the extent of the newly synthesized extracellular matrix, a spatula was used to scratch the surface of the materials. The samples were then metallized for 10 sec with gold or titanium before being analyzed.
Total RNA was extracted by using the RNeasy total RNA kit (Qiagen®) according to the manufacturer's instructions. Purified total RNA was used as a template in order to make cDNA by a reverse transcription reaction (Gibco Brl®) with random primers (Invitrogen®). […] Data were analyzed with the iCycler IQ™® software and compared by the ΔΔCt method. […]
The effect of these GFR-binding compounds as defined herein (SEQ ID NO: 33) on the differentiation of osteoblast progenitors was evaluated. […]

Where [7] appears, read: SEQ ID NO: 1 to 49 tested in combination with a bioactive carrier (titanium, ceramics, PEEK, hydrogel, etc.).
Setting [8] is: SEQ ID NO: 1143 to 1180 tested in solution.

Data on 34 sequences can be found in US11578110B2, “Compounds for inducing tissue formation and uses thereof” (HISTIDE AG, priority 2015, dated 2023).

Consider “KIPKASSTPTRLRSVKMAKV (GFR-binding peptide) [SEQ ID NO: 1083]”, for which, in data set [1], the “CD34+ Expression” value is 17%. Consider AASKASSVPEKLSSLSILFF [SEQ ID NO: 41], for which the STRO-1 expression with hMSCs [2] (setting [7]) turned out to be 28%. Moreover, in the data set on Hair Follicle Stem Cells, the “BMP-6 release in the cell culture medium” value was “decrease” and the Sox2 protein expression result is reported as “increase”.

With KIPKASSVSQELEPLTILYY [SEQ ID NO: 37], the STRO-1 expression in the data set on hMSCs [2] (setting [7]) worked out at 17%. In the data set with hMSCs [3], the “expression of the Sox9 protein” value is “observed” and the Aggrecan gene expression result is on record as “increased expression”. On to “KIPKASSVPEELEPLPTVYY (GFR-binding peptide) [SEQ ID NO: 1081]”, for which the “CD34+ Expression” value in data set [1] came to 33%. With “AASKASSSRVEESATSTLYY (GFR-binding peptide) [SEQ ID NO: 1075]”, the “CD34+ Expression” value in data set [1] came out at 28%. On to “WWFWGAAPASSSVPTRLSPISVLYK (WWFWGAAPASXXVPTRLSPISVLYK; GFR-binding peptide; MOD_RES (11)..(12): Xaa is C or S) [SEQ ID NO: 32]”, for which the STRO-1 expression in the data set with hMSCs [2] (setting [7]) came to 27%. In addition, in data set [4], the ALP activity entry is recorded as “increase”. Regarding “RVPSTSSAPVEESPISTLYI (GFR-binding peptide) [SEQ ID NO: 1076]”, in data set [1], the “CD34+ Expression” value is on record as 27%. As for “WWFWGSAGPSSTPTKMSAISMLYL (WWFWGSAGPXXTPTKMSAISMLYL; GFR-binding peptide; MOD_RES (10)..(11): Xaa is C or S) [SEQ ID NO: 22]”, the STRO-1 expression in the data set with hMSCs [2] (setting [7]) is listed as 29%. Further, in data set [5], the “release of peptides over time” value is given as “no significant release”. Consider “KIPKASSTPTGQSNITMQIM (GFR-binding peptide) [SEQ ID NO: 1082]”, for which the “CD34+ Expression” value in data set [1] is on record as 18%. For GSAGPSSVPEKMSSLSILFF [SEQ ID NO: 42], the STRO-1 expression with hMSCs [2] (setting [7]) is given as 26%. Further, in the data set with Hair Follicle Stem Cells, the “BMP-6 release in the cell culture medium” value is reported as “decrease” and the Sox2 protein expression entry is given as “increase”. As to “RVPSTSSVPQQLNAISTLYF (GFR-binding peptide) [SEQ ID NO: 1074]”, the “CD34+ Expression” value in data set [1] was found to be 32%. Same read-out and setting: as for “AASKASSVPQQLSSLSTLFF (GFR-binding peptide) [SEQ ID NO: 1073]”, the figure is 29%. As to “RVPSTSSVPTDLSSLSILFF (GFR-binding peptide) [SEQ ID NO: 1072]”, the “CD34+ Expression” value in data set [1] was found to be 26%. Consider GIPEPSSVPAKMSPISILYI [SEQ ID NO: 49], for which, in the data set on hMSCs [2] (setting [7]), the STRO-1 expression is given as 19%. In addition, in the data set on Neurons (6 hours), the “cell-cell contacts via dendrite growth” value is “rapid establishment”. Further, in the data set with Neurons (48 hours, Q-PCR), the GAP43 gene expression result is given as “high level of expression”.

Regarding “AASKASSVPTKMEPISTLYL (GFR-binding peptide) [SEQ ID NO: 1078]”, the “CD34+ Expression” value in data set [1] was found to be 30%. For the sequence “WWFWGKASKASSVPTKLSAISMLYL (WWFWGKASKAXXVPTKLSAISMLYL; GFR-binding peptide; MOD_RES (11)..(12): Xaa is C or S) [SEQ ID NO: 33]”, the STRO-1 expression with hMSCs [2] (setting [7]) came out at 26%. For the same sequence, the “differentiation of osteoblast progenitors” value in data set [6] (apatite ceramics or type-I collagen sponge coupled with peptide) was “differentiated into mature osteoblasts”. The “production of extracellular matrix proteins such as Osteopontin (OPN)” value in data set [6] (vs native type-I collagen sponge, immunofluorescence) was “extensive amounts”.

As for “RVPSTSSTQVRLSPISMLFI (GFR-binding peptide) [SEQ ID NO: 1077]”, the “CD34+ Expression” value in data set [1] turned out to be 24%. Regarding “RVPSTSSVPTELSAISVLYL (GFR-binding peptide) [SEQ ID NO: 1071]”, in data set [1], the “CD34+ Expression” value came out at 29%. The same measure, in the same setting: as for “KIPKASSVPTKMRPVQMRKI (GFR-binding peptide) [SEQ ID NO: 1084]”, the figure is 18%.

For the sequence “LNEVLRFCGIQVPEGDEPLTY (Previously reported sequence) [SEQ ID NO: 1095, reference compound]”, the STRO-1 expression with hMSCs [2] (grafted on a PET surface) came out at 99%. “KIPKASSTQVGQSATSILYY (GFR-binding peptide) [SEQ ID NO: 1161]”: in the data set with hMSCs [2] (setting [8]), the STRO-1 expression is reported as 27%.

Regarding “RVPSTSSTPTKMKPLSILYV (GFR-binding peptide) [SEQ ID NO: 1080]”, the “CD34+ Expression” value in data set [1] came to 31%.

Take “MRTESTPTTASAISYECLWSPPSNEAAKLHFDS (Previously reported sequence) [SEQ ID NO: 1137, reference compound]”: in the data set with hMSCs [2] (grafted on a PET surface), the STRO-1 expression was found to be 94%. In the case of “RVPSTSSAPTKMKPLSMLYV (GFR-binding peptide) [SEQ ID NO: 1169]”, the STRO-1 expression in the data set with hMSCs [2] (setting [8]) came out at 22%. In the case of “KIPKPSSAPTELSAISMLC (Previously reported sequence) [SEQ ID NO: 1132, reference compound]”, in the data set with hMSCs [2] (grafted on a PET surface), the STRO-1 expression is 82%. As to “GTPGPHVTKPTSVPTKLSAISMLYL (GTPGPHVTKPTXVPTKLSAISMLYL; GFR-binding peptide; MOD_RES (12)..(12): Xaa is C or S) [SEQ ID NO: 23]”, the STRO-1 expression in the data set on hMSCs [2] (setting [7]) is recorded as 28%. Further, the “release of peptides over time” value in data set [5] is recorded as “no significant release”. For AVPKASSAPTKLEPLPIVYY [SEQ ID NO: 36], the STRO-1 expression in the data set on hMSCs [2] (setting [7]) stood at 21%. Moreover, in the data set with hMSCs [3], the “expression of the Sox9 protein” value is given as “observed” and the Aggrecan gene expression entry is “increased expression”. Take “VPAGQSPISILYI (CVPAGQSPISILYI; GFR-binding peptide) [SEQ ID NO: 46]”: in the data set with hMSCs [2] (setting [7]), the STRO-1 expression was determined as 20%.

As to “TPTVVSATSL (Previously reported sequence) [SEQ ID NO: 1111, reference compound]”, the STRO-1 expression with hMSCs [2] (grafted on a PET surface) was found to be 98%. Regarding GGGKASSVPTKLSAISMLYL [SEQ ID NO: 21], the STRO-1 expression in the data set with hMSCs [2] (setting [7]) is given as 30%. Take “IKSPARHSAPTHQEPLP (Previously reported sequence) [SEQ ID NO: 1097, reference compound]”: in the data set on hMSCs [2] (grafted on a PET surface), the STRO-1 expression is given as 98%.

For the sequence “AASKASSAPTKMSPINILYF (GFR-binding peptide) [SEQ ID NO: 1079]”, the “CD34+ Expression” value in data set [1] was 30%. As for “VHLLKPHAVPKACCAPTKLSATSVLYYDSSNNVILRKHRNMVVRACGCH (Previously reported sequence) [SEQ ID NO: 1118, reference compound]”, the STRO-1 expression with hMSCs [2] (grafted on a PET surface) is 88%. With “AASKASSVPAKMRPVQTRKI (GFR-binding peptide) [SEQ ID NO: 1085]”, the “CD34+ Expression” value in data set [1] was 19%.
